Tests used:
786–0 = assay: NCI-60 screen; assay type: cell-based; settings: Homo sapiens, Renal Cancer
Procedure: (§1) All the synthesized compounds 51–76 were tested at a 10^–5 M concentration for their antitumor activity on the full NCI-60 panel comprising cancer cell lines derived from nine human cancer cell types (leukemia, non-small-cell lung, colon, central nervous system, melanoma, ovarian, renal, prostate, and breast).[50]

BT-549 = assay: NCI-60 screen; assay type: cell-based; settings: Homo sapiens, Breast Cancer
Procedure: as §1

HCT-116 = assay: NCI-60 screen; assay type: cell-based; settings: Homo sapiens, Colon Cancer
Procedure: as §1

HOP-62 = assay: NCI-60 screen; assay type: cell-based; settings: Homo sapiens, Non-Small-Cell Lung Cancer
Procedure: as §1

HOP-92 = assay: NCI-60 screen; assay type: cell-based; settings: Homo sapiens, Non-Small-Cell Lung Cancer
Procedure: as §1

HS 578T = assay: NCI-60 screen; assay type: cell-based; settings: Homo sapiens, Breast Cancer
Procedure: as §1

MALME-3M = assay: NCI-60 screen; assay type: cell-based; settings: Homo sapiens, Melanoma
Procedure: as §1

MCF7 = assay: NCI-60 screen; assay type: cell-based; settings: Homo sapiens, Breast Cancer
Procedure: as §1

MDA-MB-468 = assay: NCI-60 screen; assay type: cell-based; settings: Homo sapiens, Breast Cancer
Procedure: as §1

MOLT-4 = assay: NCI-60 screen; assay type: cell-based; settings: Homo sapiens, Leukemia
Procedure: as §1

NCI-H23 = assay: NCI-60 screen; assay type: cell-based; settings: Homo sapiens, Non-Small-Cell Lung Cancer
Procedure: as §1

NCI-H322M = assay: NCI-60 screen; assay type: cell-based; settings: Homo sapiens, Non-Small-Cell Lung Cancer
Procedure: as §1

NCI/ADR-RES = assay: NCI-60 screen; assay type: cell-based; settings: Homo sapiens, Ovarian Cancer
Procedure: as §1

OVCAR-4 = assay: NCI-60 screen; assay type: cell-based; settings: Homo sapiens, Ovarian Cancer
Procedure: as §1

OVCAR-8 = assay: NCI-60 screen; assay type: cell-based; settings: Homo sapiens, Ovarian Cancer
Procedure: as §1

RXF 393 = assay: NCI-60 screen; assay type: cell-based; settings: Homo sapiens, Renal Cancer
Procedure: as §1

SF-295 = assay: NCI-60 screen; assay type: cell-based; settings: Homo sapiens, CNS Cancer
Procedure: as §1

SF-539 = assay: NCI-60 screen; assay type: cell-based; settings: Homo sapiens, CNS Cancer
Procedure: as §1

SK-MEL-28 = assay: NCI-60 screen; assay type: cell-based; settings: Homo sapiens, Melanoma
Procedure: as §1

SK-MEL-2 = assay: NCI-60 screen; assay type: cell-based; settings: Homo sapiens, Melanoma
Procedure: as §1

SK-MEL-5 = assay: NCI-60 screen; assay type: cell-based; settings: Homo sapiens, Melanoma
Procedure: as §1

SN12C = assay: NCI-60 screen; assay type: cell-based; settings: Homo sapiens, Renal Cancer
Procedure: as §1

SNB-19 = assay: NCI-60 screen; assay type: cell-based; settings: Homo sapiens, CNS Cancer
Procedure: as §1

SNB-75 = assay: NCI-60 screen; assay type: cell-based; settings: Homo sapiens, CNS Cancer
Procedure: as §1

SR = assay: NCI-60 screen; assay type: cell-based; settings: Homo sapiens, Leukemia
Procedure: as §1

T-47D = assay: NCI-60 screen; assay type: cell-based; settings: Homo sapiens, T47D; Breast Cancer
Procedure: as §1

TK-10 = assay: NCI-60 screen; assay type: cell-based; settings: Homo sapiens, Renal Cancer
Procedure: as §1

U251 = assay: NCI-60 screen; assay type: cell-based; settings: Homo sapiens, U-251; CNS Cancer
Procedure: as §1

UACC-62 = assay: NCI-60 screen; assay type: cell-based; settings: Homo sapiens, Melanoma
Procedure: as §1

UO-31 = assay: NCI-60 screen; assay type: cell-based; settings: Homo sapiens, Renal Cancer
Procedure: as §1

[1] = tested on: human peripheral blood lymphocytes not stimulated with PHA; assay: Cytotoxicity in resting PBLs (MTT); assay type: cell-based; settings: Lymphocyte, 72 h, mean ± SEM, three experiments, read-out: GI50 PBLresting
Procedure: (§2) PBLs were obtained from human peripheral blood (leucocyte rich plasma-buffy coats) from healthy volunteers using the Lymphoprep (Fresenius KABI Norge AS) gradient density centrifugation.
(§3) After extensive washing, cells were resuspended (1.0 × 10^6 cells/mL) in RPMI-1640 with 10% fetal bovine serum and incubated overnight. For cytotoxicity evaluations in proliferating PBL cultures, nonadherent cells were resuspended at 5 × 10^5 cells/mL in growth medium, containing 2.5 μg/mL PHA (Irvine Scientific). Different concentrations of the test compounds were added, and viability was determined 72 h later by the MTT test. For cytotoxicity evaluations in resting PBL cultures, nonadherent cells were resuspended (5 × 10^5 cells/mL) and treated for 72 h with the test compounds.

[2] = tested on: human peripheral blood lymphocytes stimulated with PHA; assay: Cytotoxicity in PHA-stimulated PBLs (MTT); assay type: cell-based; settings: Lymphocyte, 72 h, mean ± SEM, three experiments, read-out: GI50 PBLPHA
Procedure: as §2, §3

bovine brain tubulin = bovine brain tubulin (Bos taurus, UniProt P81947+Q6B856); assay: Inhibition of tubulin assembly (turbidimetry); assay type: biochemical; settings: 9 μM (0.9 mg/mL) tubulin, 20 min at 30 °C; read-out: inhibition of tubulin assembly IC50 ± SD
HeLa cells = assay: Flow cytometric cell cycle distribution; assay type: cell-based; settings: 24 h
Procedure: To evaluate the effects of compounds 63, 66, and 75 on cell cycle progression, we first treated HeLa cells for 24 h.The cells were then labeled with propidium iodide (PI) and analyzed by flow cytometry. As shown in Figure 5 (panel B), compound 66 induced arrest of the cell cycle in the G2/M phase.
5 ×10^5 HeLa cells were treated with different concentrations of the test compounds for 24 h. After the incubation period, the cells were collected, centrifuged, and fixed with ice-cold ethanol (70%). The cells were treated with lysis buffer containing RNase A and 0.1% Triton X-100 and stained with PI. Samples were analyzed on a Cytomic FC500 flow cytometer (Beckman Coulter). DNA histograms were analyzed using MultiCycle for Windows (Phoenix Flow Systems).

tubulin colchicine site = tubulin colchicine site (Bos taurus, UniProt P81947+Q6B856); assay: Inhibition of [3H]colchicine binding to tubulin; settings: read-out: inhibition of colchicine binding % inhibition ± SD
Procedure: Reaction mixtures in the assembly assay contained 9 μM (0.9 mg/mL) tubulin in the assembly assay, and in the colchicine assay they contained 0.5 μM tubulin, 5.0 μM [^3H]colchicine, and 5.0 μM inhibitor.
Analysis of effects on tubulin polymerization was performed by turbidimetry at 350 nm in recording spectrophotometers equipped with electronic temperature controllers as described in detail elsewhere.[71] […] The binding of [^3H]colchicine to tubulin was perfomed as described in detail previously[72] except that the tubulin concentration was reduced from 0.1 mg/mL to 0.05 mg/mL and only one, instead of two, DEAE-cellulose filter was used for each reaction mixture.

A549/ATCC = assay: NCI-60 screen; assay type: cell-based; settings: Homo sapiens, Non-Small-Cell Lung Cancer
Procedure: as §1

HCC-2998 = assay: NCI-60 screen; assay type: cell-based; settings: Homo sapiens, Colon Cancer
Procedure: as §1

OVCAR-5 = assay: NCI-60 screen; assay type: cell-based; settings: Homo sapiens, Ovarian Cancer
Procedure: as §1

Chain of bovine brain tubulin (Q6B856 whole entry): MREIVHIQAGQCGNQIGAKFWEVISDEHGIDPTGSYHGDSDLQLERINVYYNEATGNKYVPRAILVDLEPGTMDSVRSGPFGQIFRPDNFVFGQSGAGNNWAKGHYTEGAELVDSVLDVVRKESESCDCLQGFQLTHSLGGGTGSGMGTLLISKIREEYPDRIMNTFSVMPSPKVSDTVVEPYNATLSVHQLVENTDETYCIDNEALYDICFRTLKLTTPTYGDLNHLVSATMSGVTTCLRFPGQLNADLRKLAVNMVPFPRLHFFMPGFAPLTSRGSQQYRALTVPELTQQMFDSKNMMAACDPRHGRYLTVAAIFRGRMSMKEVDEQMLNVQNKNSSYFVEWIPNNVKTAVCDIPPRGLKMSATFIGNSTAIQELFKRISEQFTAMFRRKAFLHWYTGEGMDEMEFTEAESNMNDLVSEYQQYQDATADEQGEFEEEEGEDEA
Chain of bovine brain tubulin (P81947 whole entry): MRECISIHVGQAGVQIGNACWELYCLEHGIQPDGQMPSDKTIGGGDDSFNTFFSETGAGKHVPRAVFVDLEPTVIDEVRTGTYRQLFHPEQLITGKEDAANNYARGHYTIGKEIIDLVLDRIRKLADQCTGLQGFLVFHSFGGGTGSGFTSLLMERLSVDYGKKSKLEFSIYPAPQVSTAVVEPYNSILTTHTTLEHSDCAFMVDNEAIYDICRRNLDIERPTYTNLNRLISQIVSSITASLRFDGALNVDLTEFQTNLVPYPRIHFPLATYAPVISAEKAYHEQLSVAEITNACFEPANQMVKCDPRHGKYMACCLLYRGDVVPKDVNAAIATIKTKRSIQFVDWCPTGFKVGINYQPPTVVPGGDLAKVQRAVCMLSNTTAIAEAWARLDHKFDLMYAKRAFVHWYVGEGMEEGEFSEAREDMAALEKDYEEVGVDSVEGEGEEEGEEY
Chain of tubulin colchicine site (Q6B856 whole entry): as the sequence (Q6B856 whole entry) above
Chain of tubulin colchicine site (P81947 whole entry): as the sequence (P81947 whole entry) above

Structure (SMILES)	GI50 (786–0) [nM]	GI50 (BT-549) [nM]	GI50 (HCT-116) [nM]	GI50 (HOP-62) [nM]	GI50 (HOP-92) [nM]	GI50 (HS 578T) [nM]	GI50 (MALME-3M) [nM]	GI50 (MCF7) [nM]	GI50 (MDA-MB-468) [nM]	GI50 (MOLT-4) [nM]	GI50 (NCI-H322M) [nM]	GI50 (NCI/ADR-RES) [nM]	GI50 (OVCAR-4) [nM]	GI50 (SF-295) [nM]	GI50 (SK-MEL-5) [nM]	GI50 (SNB-19) [nM]	GI50 (SR) [nM]	GI50 (T-47D) [nM]	GI50 (TK-10) [nM]	GI50 (UACC-62) [nM]	also measured
CCOC(=O)c1c(Cl)c2c(n1Cc1cc(OC)cc(OC)c1)-c1oncc1CCC2 [Compound 75, Ethyl 7-Chloro-9-(3,5-dimethoxybenzyl)-4,5,6,9-tetrahydropyrrolo[2′,3′:3,4]cyclohepta[1,2-d][1,2]oxazole-8-carboxylate]	4240	27000	430	290	460	450	200	100	730	580	510	200	850	60	490	520	70	440	10300	110	GI50 (NCI-H23): 680 nM; GI50 (OVCAR-8): 410 nM; GI50 (RXF 393): 250 nM; GI50 (SF-539): 240 nM; GI50 (SK-MEL-28): 660 nM; GI50 (SK-MEL-2): 220 nM; GI50 (SN12C): 830 nM; GI50 (SNB-75): 220 nM; GI50 (U251): 310 nM; GI50 (UO-31): 780 nM; GI50 [1]: > 100000 nM; GI50 [2]: > 100000 nM; IC50 (bovine brain tubulin): 1900 ± 100 nM; concentration at which G2/M arrest first occurred (HeLa cells): 0.25 µM; inhibition at 5 µM (tubulin colchicine site): 42 ± 5%
CCOC(=O)c1cc2c(n1Cc1cccc(OC)c1)-c1oncc1CCC2 [Compound 63, Ethyl 9-(3-Methoxybenzyl)-4,5,6,9-tetrahydropyrrolo[2′,3′:3,4]cyclohepta[1,2-d][1,2]oxazole-8-carboxylate]	6740	980	470	4340	4210	1600	890	370	340	2300		430	18700	620	750	8230	280	2000	11200	510	GI50 (A549/ATCC): 760 nM; GI50 (HCC-2998): 4180 nM; GI50 (OVCAR-5): 5940 nM; GI50 (OVCAR-8): 3130 nM; GI50 (RXF 393): 670 nM; GI50 (SF-539): 1140 nM; GI50 (SK-MEL-28): 5120 nM; GI50 (SK-MEL-2): 560 nM; GI50 (SN12C): 3510 nM; GI50 (SNB-75): 1600 nM; GI50 (UO-31): 3370 nM; GI50 [1]: > 100000 nM; GI50 [2]: > 100000 nM; IC50 (bovine brain tubulin): 6300 ± 60 nM; concentration at which G2/M arrest first occurred (HeLa cells): 1 µM
CCOC(=O)c1c(Cl)c2c(n1Cc1ccccc1)-c1oncc1CCC2 [Compound 70, Ethyl 7-Chloro-9-benzyl-4,5,6,9-tetrahydropyrrolo[2′,3′:3,4]cyclohepta[1,2-d][1,2]oxazole-8-carboxylate]			4020	4350			3680	3210		3580	> 100000	2830		> 100000	3530	> 100000	1800	2690	> 100000	4010	GI50 (OVCAR-5): > 100000 nM
